≈ marks a conversion by molar mass, not a printed value. Where “and” joins values, the source holds several entries; their conditions need not be identical. Identical values can stand only once. Entries after “also recorded” stand apart in the source; their conditions may differ. Like-named read-outs stand apart in the source and are kept apart here.
Columns and labels:
[1] = tested on: C57BL/6 Diet Induced Obese (DIO) mice; experiment: Oral (P.O.) administration study in DIO mice: blood glucose level after 6 hours of fasting; type: in vivo, mouse; conditions: 2 mg/kg oral gavage once daily for 10 days, compared with controls
Experimental: (§1) Dose formulations were administered by oral gavage once daily for 10 days at a dose volume of 2 mL/kg. Doses were based on the most recently recorded scheduled body weight.
Blood for blood glucose was collected from all animals via tail clip on Day 14 of the predose phase, and Day 11 of the dosing phase after 6 hours of fasting. A drop of blood from each animal was placed onto two different Accu-Chek® Aviva glucometers to assess glucose values. A third value was taken, if necessary.
(§2) Descriptive statistics (n, mean, standard error of the mean, standard deviation) were completed. Additionally, one-way analysis of variance followed by Dunnett's post-hoc test were performed on body weight (cumulative body weight change), glucose (glucose percent change), and food consumption (cumulative food consumption). Area under the curve (for body weight, cumulative body weight change, daily body weight change, and food consumption) was computed for treatment groups. An appropriate comparison test, such as one-way analysis of variance and Dunnett's, was performed on the group means for the area under the curve computations. Any additional statistical analysis and interpretation of the results were the responsibility of the sponsor.

[2] = tested on: C57BL/6 Diet Induced Obese (DIO) mice; experiment: Oral (P.O.) administration study in DIO mice: in vivo activity, body weights; design: species or system mouse; conditions: for area under the curve (AUC) for cumulative body weight change / area under the curve (AUC) for daily body weight change / cumulative body weight change: 2 mg/kg oral gavage once daily for 10 days, compared with controls; for Individual Body Weight, PRED 11: pre-dose phase day 11 (baseline); for Individual Body Weight, PRED 12: pre-dose phase day 12 (baseline); for Individual Body Weight, PRED 13: pre-dose phase day 13 (baseline); for Individual Body Weight, PRED 14: pre-dose phase day 14 (baseline); for Individual Body Weight, DSNG 1: dosing phase day 1; for Individual Body Weight, DSNG 2: dosing phase day 2; for Individual Body Weight: individual male animals; for Body weight, Mean / change in vivo at 2 mg/kg: male; for change in vivo at 2 mg/kg: Mus musculus, po, read-out: Body weight, %-Diff
Summary of the method: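 Male C57BL/6 DIO mice (21-22 weeks, 29.8-40.1 g) were gavage-acclimated with vehicle, then dosed orally once daily for 10 days at 2 mL/kg. Body weight was recorded daily before dosing. Cumulative change and AUC were analysed by one-way ANOVA with Dunnett's test.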

[3] = tested on: C57BL/6 Diet Induced Obese (DIO) mice; experiment: Oral (P.O.) administration study in DIO mice: food consumption; type: in vivo, mouse; conditions: 2 mg/kg oral gavage once daily for 10 days, compared with controls
Experimental: as §1
A quantitative assessment of food consumption was recorded daily on Days 11 through 14 of the predose phase and daily prior to dosing during the dosing phase.
as §2

[4] = in vivo
[5] = Compound solubility in PBS (pH 7.4), LC-MS/MS; conditions: PBS (pH 7.4), pH 7.4, aqueous buffer, kinetic from dmso stock, Solubility (μM) Mean, Table 6-C, test concentration 100 μM (1% of DMSO), shaken (1000 rpm) 1 h at room temperature, n = 2
Experimental: • Test concentration: 100 μM (1% of DMSO) • Test systems: PBS (pH 7.4) • Incubation condition: shaken (1000 rpm) for 1 h at room temperature • Sample size: Duplicates (n=2) • Bioanalytical method: LC-MS/MS

[6] = tested on: C57BL/6 Diet Induced Obese (DIO) mice; experiment: Oral (P.O.) administration study in DIO mice: animal fate (mortality) and clinical observations; conditions: individual male DIO mouse, 2 mg/kg; phase of fate Dosing, phase week 2, phase day 11
Summary of the method: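 Male C57BL/6 DIO mice received 2 mg/kg of each compound by oral gavage once daily for 10 days; vehicle was 1% methyl cellulose in citric acid/phosphate buffer. Mortality and clinical signs recorded alongside body weight, food intake and blood glucose; animals sacrificed Day 11.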

[7] = individual male DIO mouse of the 2 mg/kg group
[8] = individual male DIO mouse, 2 mg/kg, 2 mg/kg
[9] = individual male DIO mouse, group dosed 2 mg/kg, 2 mg/kg

Compound: CC1=C(O)C(=O)C=C2C1=CC=C1[C@@]2(C)CC[C@@]2(C)[C@@H]3C[C@](C)(C(=O)O)CC[C@]3(C)CC[C@]12C [ERX1000-4, Celastrol]
- glucose value percent change [1]: Statistically significant changes; also recorded: statistically significant decreases
- area under the curve (AUC) for cumulative body weight change [2]: statistically significant decreases
- area under the curve (AUC) for daily body weight change [2]: statistically significant decreases
- cumulative body weight change [2]: statistically significant decreases
- Individual Body Weight, PRED 11 [2, 7]: 35.9 g and 35.1 g and 37.3 g and 34.5 g and 37.5 g
- Individual Body Weight, PRED 12 [2, 7]: 35.2 g and 33.5 g and 37.4 g and 35.5 g and 37.3 g
- Individual Body Weight, PRED 13 [2, 7]: 35.1 g and 32.5 g and 37.7 g and 34.0 g and 36.0 g
- Individual Body Weight, PRED 14 [2, 7]: 35.5 g and 32.9 g and 37.9 g and 34.6 g and 37.2 g
- Individual Body Weight, DSNG 1 [2, 8]: 34.6 g and 30.8 g and 37.0 g and 33.5 g and 34.9 g
- Individual Body Weight, DSNG 2 [2, 8]: 34.4 g and 30.8 g and 36.4 g and 33.5 g and 35.0 g
- cumulative food intake [3]: statistically significant decreases

Compound: Cc1c(O)c(O)cc2c1C(=O)C=C1[C@@]2(C)CC[C@@]2(C)[C@@H]3C[C@](C)(C(=O)O)CC[C@]3(C)CC[C@]12C [ERX1030]
- Oral bioavailability [4]: −

Compound: CC(=O)N[C@]1(C)CC[C@]2(C)CC[C@]3(C)C4=CC=C5C(=CC(=O)C(O)=C5C)[C@]4(C)CC[C@@]3(C)[C@@H]2C1 [ERX1168]
- glucose value percent change [1]: Statistically significant changes; also recorded: statistically significant decreases
- area under the curve (AUC) for cumulative body weight change [2]: statistically significant decreases
- area under the curve (AUC) for daily body weight change [2]: statistically significant decreases
- cumulative body weight change [2]: statistically significant decreases
- Individual Body Weight ([2]; 2 mg/kg, Phase Day DSNG 3): 30.7 g and 37.3 g and 34.4 g and 30.5 g and 28.3 g
- Individual Body Weight ([2]; 2 mg/kg, Phase Day DSNG 4): 30.0 g and 37.5 g and 34.2 g and 29.1 g and 28.9 g
- Individual Body Weight ([2]; 2 mg/kg, Phase Day DSNG 5): 29.2 g and 36.1 g and 33.2 g and 28.8 g and 28.0 g
- Individual Body Weight ([2]; 2 mg/kg, Phase Day DSNG 6): 28.4 g and 33.9 g and 31.6 g and 27.0 g and 26.7 g
- Individual Body Weight ([2]; 2 mg/kg, Phase Day DSNG 7): 28.9 g and 32.3 g and 30.7 g and 27.0 g and 27.3 g
- Individual Body Weight ([2]; 2 mg/kg, Phase Day DSNG 8): 28.7 g and 32.7 g and 29.5 g and 27.7 g and 26.9 g
- Body weight, Mean ([2]; DIO mice, 2 mg/kg, phase DSNG, Day 7): 29.2 g
- Body weight, Mean ([2]; DIO mice, 2 mg/kg, phase DSNG, Day 8): 29.1 g
- Body weight, Mean ([2]; DIO mice, 2 mg/kg, phase DSNG, Day 9): 30.0 g
- Body weight, Mean ([2]; DIO mice, 2 mg/kg, phase DSNG, Day 10): 29.2 g
- Body weight, Mean ([2]; DIO mice, 2 mg/kg, phase DSNG, Day 11): 29.2 g
- Body weight, Mean ([2]; Day 1, DSNG phase, 2 mg/kg, N=5): 34.5 g
- Body weight, Mean ([2]; Day 2, DSNG phase, 2 mg/kg, N=5): 34.0 g
- Body weight, Mean ([2]; Day 3, DSNG phase, 2 mg/kg, N=5): 32.2 g
- Body weight, Mean ([2]; Day 4, DSNG phase, 2 mg/kg, N=5): 31.9 g
- Body weight, Mean ([2]; Day 5, DSNG phase, 2 mg/kg, N=5): 31.1 g
- Body weight, Mean ([2]; Day 6, DSNG phase, 2 mg/kg, N=5): 29.5 g
- change in vivo at 2 mg/kg ([2]; 24 h, Day 1, DSNG phase, 2 mg/kg, difference of group mean): 1%
- change in vivo at 2 mg/kg ([2]; 48 h, Day 2, DSNG phase, 2 mg/kg, difference of group mean): -1%
- change in vivo at 2 mg/kg ([2]; 72 h, Day 3, DSNG phase, 2 mg/kg, difference of group mean): -5%
- change in vivo at 2 mg/kg ([2]; 96 h, Day 4, DSNG phase, 2 mg/kg, difference of group mean): -4%
- change in vivo at 2 mg/kg ([2]; 120 h, Day 5, DSNG phase, 2 mg/kg, difference of group mean): -8%
- change in vivo at 2 mg/kg ([2]; 144 h, Day 6, DSNG phase, 2 mg/kg, difference of group mean): -12%
- change in vivo at 2 mg/kg ([2]; 168 h, DIO mice, 2 mg/kg, phase DSNG, Day 7, difference of group mean from vehicle group 1): -13%
- change in vivo at 2 mg/kg ([2]; 192 h, DIO mice, 2 mg/kg, phase DSNG, Day 8, difference of group mean from vehicle group 1): -14%
- change in vivo at 2 mg/kg ([2]; 216 h, DIO mice, 2 mg/kg, phase DSNG, Day 9, difference of group mean from vehicle group 1): -10%
- change in vivo at 2 mg/kg ([2]; 240 h, DIO mice, 2 mg/kg, phase DSNG, Day 10, difference of group mean from vehicle group 1): -13%
- change in vivo at 2 mg/kg ([2]; 264 h, DIO mice, 2 mg/kg, phase DSNG, Day 11, difference of group mean from vehicle group 1): -14%
- Individual Body Weight, DSNG 1 [2, 8]: 33.1 g and 39.5 g and 36.9 g and 31.9 g and 31.1 g
- Individual Body Weight, DSNG 2 [2, 8]: 32.5 g and 40.4 g and 36.2 g and 31.2 g and 29.9 g
- Individual Body Weight, PRED 11 [2, 9]: 35.6 g and 39.3 g and 37.3 g and 35.3 g and 33.0 g
- Individual Body Weight, PRED 12 [2, 9]: 35.2 g and 40.3 g and 37.2 g and 33.1 g and 31.0 g
- Individual Body Weight, PRED 13 [2, 9]: 35.0 g and 40.4 g and 37.2 g and 32.5 g and 30.6 g
- Individual Body Weight, PRED 14 [2, 9]: 35.1 g and 41.2 g and 37.5 g and 33.3 g and 32.1 g
- solubility at 1 h [5]: 5.05 µM (≈ 2.34 µg/mL)
- Individual Animal Fate: Fate Status [6]: Scheduled Sacrifice
- area under the curve (AUC) for cumulative food intake [3]: statistically significant decreases
- cumulative food intake [3]: statistically significant decreases

From patent publication US10662218B2, “Analogs of celastrol” (ERX Pharmaceuticals, Inc., priority 2015, dated 2020)
